Columns and labels:
ER = molecular target: T1, ER (Homo sapiens, UniProt P03372); assay: In-cell western blot analysis, relative ER percentage (compounds B1-B126); type: cell-based; conditions: ER degradation, 16 hours, read-out: ICW DC50
T1 construct: endogenous in cells; probably T47D or MCF-7
T1 sequence (P03372 1-595): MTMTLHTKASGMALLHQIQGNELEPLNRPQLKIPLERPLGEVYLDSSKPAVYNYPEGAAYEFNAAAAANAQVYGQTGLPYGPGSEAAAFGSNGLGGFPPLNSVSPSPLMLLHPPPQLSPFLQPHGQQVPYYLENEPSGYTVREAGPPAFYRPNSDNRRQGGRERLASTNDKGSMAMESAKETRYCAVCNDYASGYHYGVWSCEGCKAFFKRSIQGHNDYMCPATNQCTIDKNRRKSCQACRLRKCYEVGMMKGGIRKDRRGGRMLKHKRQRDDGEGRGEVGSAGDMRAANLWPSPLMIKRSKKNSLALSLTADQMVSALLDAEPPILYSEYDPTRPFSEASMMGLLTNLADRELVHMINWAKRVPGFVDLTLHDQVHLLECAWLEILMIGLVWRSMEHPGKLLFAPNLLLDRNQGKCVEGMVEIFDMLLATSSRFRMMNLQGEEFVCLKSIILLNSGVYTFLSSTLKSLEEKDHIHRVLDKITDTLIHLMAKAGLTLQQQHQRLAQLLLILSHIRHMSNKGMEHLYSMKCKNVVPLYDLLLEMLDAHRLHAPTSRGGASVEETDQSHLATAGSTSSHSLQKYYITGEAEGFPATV
Procedure, shortened: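 Cells seeded at 40,000 or 10,000 per well overnight were treated with compound (final 0.5% DMSO) for 16 hours, then fixed with formaldehyde. ER was detected with primary antibodies and anti-rabbit-680/anti-mouse-800 secondaries on a CLX reader. Signal is expressed relative to untreated and DMSO wells set as 100%.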

[1] = Cell growth assay, WST-8 (compounds B1-B126); type: cell-based; conditions: 96 h; T47D cell line, WST-8, 4 days; read-out: Cell growth inhibition in T47D cell line IC50
Procedure, shortened: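 Cells seeded at 1500/well overnight, treated one day later with compound doses for 4 days, then 10% WST-8 added for 2.5 h at 37° C in CO2. Absorbance at 450 nm, expressed relative to vehicle control over three independent repeats.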

Row | SMILES | DC50 (ER) [nM] | IC50 [1] [nM]
1 | C[C@@H]1Cc2c(ccc3[nH]ncc23)[C@@H](c2cnc(N3CCC4(CCC(CN5CCC6(CC5)COc5c6ccc6c5CN([C@H]5CCC(=O)NC5=O)C6=O)CO4)CC3)nc2)N1CC(F)(F)F (stereo partly drawn) [Compound B126, (3S)-3-(1′-((9-(5-((6S,8R)-8-methyl-7-(2,2,2-trifluoroethyl)-6,7,8,9-tetrahydro-3H-pyrazolo[4,3-f]isoquinolin-6-yl)pyrimidin-2-yl)-1-oxa-9-azaspiro[5.5]undecan-3-yl)methyl)-6-oxo-6,8-dihydro-2H,7H-spiro[furo [2,3-e]isoindole-3,4′-piperidin]-7-yl)piperidine-2,6-dione] | < 10 | < 1
2 | C[C@@H]1Cc2c(ccc3[nH]ncc23)[C@@H](c2ccc(N3CC4(CCC(CN5CCN6c7c(ccc8c7CN(C7CCC(=O)NC7=O)C8=O)OC[C@@H]6C5)CC4)C3)cn2)N1CC(F)(F)F (stereo partly drawn) [Compound B110, 3-((S)-9-((2-(6-((6S,8R)-8-methyl-7-(2,2,2-trifluoroethyl)-6,7,8,9-tetrahydro-3H-pyrazolo[4,3-f]isoquinolin-6-yl)pyridin-3-yl)-2-azaspiro[3.5]nonan-7-yl)methyl)-3-oxo-1,3,7,7a,8,9,10,11-octahydro-2H-pyrazino[1′,2′:4,5][1,4]oxazino[3,2-e]isoindol-2-yl)piperidine-2,6-dione] | > 100 | 1 to 10
3 | C[C@@H]1Cc2c(ccc3[nH]ncc23)[C@@H](c2c(F)cc(N3CC4(CN(C(=O)CN5CCN6c7cc8c(cc7OC[C@@H]6C5)C(=O)N(C5CCC(=O)NC5=O)C8)C4)C3)cc2F)N1CC(F)F (stereo partly drawn) [Compound B34, 3-((S)-3-(2-(6-(4-((6S,8R)-7-(2,2-difluoroethyl)-8-methyl-6,7,8,9-tetrahydro-3H-pyrazolo[4,3-f]isoquinolin-6-yl)-3,5-difluorophenyl)-2,6-diazaspiro[3.3]heptan-2-yl)-2-oxoethyl)-8-oxo-1,2,3,4,4a,5,8,10-octahydro-9H-pyrazino[1′,2′:4,5][1,4]oxazino[2,3-f]isoindol-9-yl)piperidine-2,6-dione] | < 10 | < 1
4 | C[C@@H]1Cc2c(ccc3[nH]ncc23)[C@@H](c2ccc(N3CC4(CCC(CN5CCC6(CC5)COc5c6ccc6c5CN(C5CCC(=O)NC5=O)C6=O)CC4)C3)cn2)N1CC(F)(F)F (stereo partly drawn) [Compound B57, 3-(1′-((2-(6-((6S,8R)-8-mcthyl-7-(2,2,2-trifluoroethyl)-6,7,8,9-tetrahydro-3H-pyrazolo[4,3-f]isoquinolin-6-yl)pyridin-3-yl)-2-azaspiro[3.5]nonan-7-yl)methyl)-6-oxo-6,8-dihydro-2H,7H-spiro[furo[2,3-e]isoindole-3,4′-piperidin]-7-yl)piperidine-2,6-dione] | < 10 | < 1
5 | COc1cc(N2CCC3(CCN(C(=O)CN4Cc5cc6c(cc5C4)C(=O)N(C4CCC(=O)NC4=O)C6)CC3)CC2)ccc1[C@@H]1c2ccc3[nH]ncc3c2C[C@@H](C)N1CC(F)F (stereo partly drawn) [Compound B69, 3-(6-(2-(9-(4-((6S,8R)-7-(2,2-difluoroethyl)-8-methyl-6,7,8,9-tetrahydro-3H-pyrazolo[4,3-f]isoquinolin-6-yl)-3-methoxyphenyl)-3,9-diazaspiro[5.5]undecan-3-yl)-2-oxoethyl)-1-oxo-3,5,6,7-tetrahydropyrrolo[3,4-f]isoindol-2(1H)-yl)piperidine-2,6-dione] | < 10 | < 1
6 | C[C@@H]1Cc2c(ccc3[nH]ncc23)[C@@H](c2ccc(N3CCC4(CCC(CN5CCC6(CC5)COc5c6ccc6c5CN([C@H]5CCC(=O)NC5=O)C6=O)CO4)CC3)nn2)N1CC(F)(F)F (stereo partly drawn) [Compound B128, (3S)-3-(1′-((9-(6-((6S,8R)-8-methyl-7-(2,2,2-trifluoroethyl)-6,7,8,9-tetrahydro-3H-pyrazolo[4,3-f]isoquinolin-6-yl)pyridazin-3-yl)-1-oxa-9-azaspiro[5.5]undecan-3-yl)methyl)-6-oxo-6,8-dihydro-2H,7H-spiro[furo[2,3-e]isoindole-3,4′-piperidin]-7-yl)piperidine-2,6-dione] | < 10 | < 1

Further lines, with some results ahead:

Row | DC50 (ER) [nM] | SMILES | IC50 [1] [nM]
7 | < 10 | C[C@@H]1Cc2c(ccc3[nH]ncc23)[C@@H](c2c(F)cc(NC3CC4(C3)CN(CC(=O)N3CCN5c6cc7c(cc6OC[C@@H]5C3)C(=O)N(C3CCC(=O)NC3=O)C7)C4)cc2F)N1CC(F)F (stereo partly drawn) [Compound B42, 3-((S)-3-(2-(6-((4-((6S,8R)-7-(2,2-difluoroethyl)-8-methyl-6,7,8,9-tetrahydro-3H-pyrazolo[4,3-f]isoquinolin-6-yl)-3,5-difluorophenyl)amino)-2-azaspiro[3.3]heptan-2-yl)acetyl)-8-oxo-1,2,3,4,4a,5,8,10-octahydro-9H-pyrazino[1′,2′:4,5][1,4]oxazino[2,3-f]isoindol-9-yl)piperidine-2,6-dione] | < 1
8 | < 10 | COc1cc(N2CCC3(CC2)CC(CN2CCN4c5ccc6c(c5OC[C@H]4C2)CN(C2CCC(=O)NC2=O)C6=O)CO3)ccc1[C@@H]1c2ccc3[nH]ncc3c2C[C@@H](C)N1CC(F)F (stereo partly drawn) [Compound B80, 3-((5aR)-7-((8-(4-((6S,8R)-7-(2,2-difluoroethyl)-8-methyl-6,7,8,9-tetrahydro-3H-pyrazolo[4,3-f]isoquinolin-6-yl)-3-mcthoxyphenyl)-1-oxa-8-azaspiro[4.5]decan-3-yl)methyl)-1-oxo-1,3,5,5a,6,7,8,9-octahydro-2H-pyrazino[1′,2′:4,5][1,4]oxazino[2,3-e]isoindol-2-yl)piperidine-2,6-dione] | < 1
9 | < 10 | C[C@@H]1Cc2c(ccc3[nH]ncc23)[C@@H](c2c(F)cc(N3CC4(CCN(C(=O)CN5CCN6c7cc8c(cc7OC[C@@H]6C5)C(=O)N(C5CCC(=O)NC5=O)C8)CC4)C3)cc2F)N1CC(F)F (stereo partly drawn) [Compound B22, 3-((S)-3-(2-(2-(4-((6S,8R)-7-(2,2-difluoroethyl)-8-methyl-6,7,8,9-tetrahydro-3H-pyrazolo[4,3-f]isoquinolin-6-yl)-3,5-difluorophenyl)-2,7-diazaspiro[3.5]nonan-7-yl)-2-oxoethyl)-8-oxo-1,2,3,4,4a,5,8,10-octahydro-9H-pyrazino[1′,2′:4,5][1,4]oxazino[2,3-f]isoindol-9-yl)piperidine-2,6-dione] | < 1
10 | < 10 | C[C@@H]1Cc2c(ccc3[nH]ncc23)[C@@H](c2ccc(N3CC4(CC(CN5CCN6c7ccc8c(c7OC[C@H]6C5)CN(C5CCC(=O)NC5=O)C8=O)CO4)C3)cn2)N1CC(F)(F)F (stereo partly drawn) [Compound B96, 3-((5aR)-7-((2-(6-((6S,8R)-8-methyl-7-(2,2,2-trifluoroethyl)-6,7,8,9-tetrahydro-3H-pyrazolo[4,3-f]isoquinolin-6-yl)pyridin-3-yl)-5-oxa-2-azaspiro[3.4]octan-7-yl)methyl)-1-oxo-1,3,5,5a,6,7,8,9-octahydro-2H-pyrazino[1′,2′:4,5][1,4]oxazino[2,3-e]isoindol-2-yl)piperidine-2,6-dione] | < 1
11 | < 10 | C[C@@H]1Cc2c(ccc3[nH]ncc23)[C@@H](c2ccc(N3CCC4(CCN(CC(=O)N5Cc6cc7c(cc6C5)C(=O)N(C5CCC(=O)NC5=O)C7)CC4)CC3)cn2)N1CC(F)(F)F (stereo partly drawn) [Compound B76, 3-(6-(2-(9-(6-((6S,8R)-8-methyl-7-(2,2,2-trifluoroethyl)-6,7,8,9-tetrahydro-3H-pyrazolo[4,3-f]isoquinolin-6-yl)pyridin-3-yl)-3,9-diazaspiro[5.5]undecan-3-yl)acetyl)-1-oxo-3,5,6,7-tetrahydropyrrolo[3,4-f]isoindol-2(1H)-yl)piperidine-2,6-dione] | 1 to 10
12 | < 10 | C[C@@H]1Cc2c(ccc3[nH]ncc23)[C@@H](c2c(F)cc(N3CC4(CN(CC(=O)N5CCN6c7cc8c(cc7OC[C@@H]6C5)C(=O)N(C5CCC(=O)NC5=O)C8)C4)C3)cc2F)N1CC(F)F (stereo partly drawn) [Compound B38, 3-((S)-3-(2-(6-(4-((6S,8R)-7-(2,2-difluorocthyl)-8-mcthyl-6,7,8,9-tetrahydro-3H-pyrazolo[4,3-f]isoquinolin-6-yl)-3,5-difluorophenyl)-2,6-diazaspiro[3.3]heptan-2-yl)acetyl)-8-oxo-1,2,3,4,4a,5,8,10-octahydro-9H-pyrazino[1′,2′:4,5][1,4]oxazino[2,3-f]isoindol-9-yl)piperidine-2,6-dione] | < 1
13 | < 10 | C[C@@H]1Cc2c(ccc3[nH]ncc23)[C@@H](c2ccc(N3CCC(N4CC(N5CCN6c7cc8c(cc7OC[C@@H]6C5)C(=O)N(C5CCC(=O)NC5=O)C8)C4)CC3)cn2)N1CC(F)(F)F (stereo partly drawn) [Compound B52, 3-((S)-3-(1-(1-(6-((6S,8R)-8-methyl-7-(2,2,2-trifluoroethyl)-6,7,8,9-tetrahydro-3H-pyrazolo[4,3-f]isoquinolin-6-yl)pyridin-3-yl)piperidin-4-yl)azetidin-3-yl)-8-oxo-1,2,3,4,4a,5,8,10-octahydro-9H-pyrazino[1′,2′:4,5][1,4]oxazino[2,3-f]isoindol-9-yl)piperidine-2,6-dione] | < 1
